{
  "source": "paper PMC5832243",
  "about": "“The importance of negative determinants as modulators of CK2 targeting. The lesson of Akt2 S131” (PLoS ONE, 2018)",
  "format_in_all_cases": "biochemical",
  "key": {"recombinant CK2 α2β2": {"target": "T1, recombinant CK2 α2β2 (Homo sapiens, UniProt P67870+P68400)", "T1 construct": "made in house", "T1 sequence (P68400 whole entry)": "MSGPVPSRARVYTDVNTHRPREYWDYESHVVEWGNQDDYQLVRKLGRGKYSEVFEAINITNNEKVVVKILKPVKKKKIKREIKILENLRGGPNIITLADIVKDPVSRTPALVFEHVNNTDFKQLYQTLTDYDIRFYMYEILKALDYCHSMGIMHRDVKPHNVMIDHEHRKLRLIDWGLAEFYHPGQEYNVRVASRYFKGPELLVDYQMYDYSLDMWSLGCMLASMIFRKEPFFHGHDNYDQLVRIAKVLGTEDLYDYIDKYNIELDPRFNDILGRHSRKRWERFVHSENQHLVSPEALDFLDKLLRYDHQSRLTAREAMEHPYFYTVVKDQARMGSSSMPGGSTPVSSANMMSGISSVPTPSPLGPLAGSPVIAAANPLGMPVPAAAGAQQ", "T1 sequence (P67870 whole entry partner)": "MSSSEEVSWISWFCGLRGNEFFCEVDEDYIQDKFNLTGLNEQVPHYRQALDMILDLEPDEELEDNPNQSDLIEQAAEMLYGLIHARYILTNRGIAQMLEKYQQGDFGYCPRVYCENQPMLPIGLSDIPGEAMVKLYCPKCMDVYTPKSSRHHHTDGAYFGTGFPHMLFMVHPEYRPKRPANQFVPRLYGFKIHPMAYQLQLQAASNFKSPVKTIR", "assay": "CK2 kinase assay, phosphorylation of synthetic peptides (33P, phosphocellulose filters)", "conditions": "for Phosphorylation by CK2, time course (in words): 0-120 min incubation with CK2 (Fig 1A); for Phosphorylation by CK2: summary class of level of phosphorylation by CK2 (Table 4); for Effect of residue replacement in the Akt2 peptide on phosphorylation by CK2 (in words): 10 min with CK2, % of cpm of Akt1 wt peptide, means of 4 experiments (Fig 2A)", "procedure": "Recombinant CK2α and CK2 α2β2 were expressed, purified and kindly donated by Dr. Stefania Sarno (Padova, Italy) and Andrea Venerando (Padova, Italy).\nPhosphorylation of synthetic peptides was performed with recombinant CK2 α2β2 (0.025 μg) incubated at 30°C in a final volume of 20 μl containing 50 mM Tris/HCl (pH 7.5), 100 mM NaCl, 10 mM MgCl2, the indicated concentrations of peptides, and 20 μM [γ^33P-ATP] (5000–10000 cpm/pmol). Assays were stopped by spotting onto phosphocellulose filters. Filters were washed four times in 0.5% orthophosphoric acid before counting."}, "CK2": {"system": "CK2", "assay": "Phospho-aminoacid determination after CK2 phosphorylation (acid hydrolysis, high-voltage paper electrophoresis)", "conditions": "2 mM peptide, 20 or 120 min with CK2; only faint traces of phospho-threonine (Fig 2C)", "procedure": "For the identification of the amino acids phosphorylated by CK2 in Akt2 peptide, after phosphorylation samples were hydrolyzed by incubation for 4 h at 110°C in 6 N HCl, then subjected to high-voltage paper electrophoresis at pH 1.9 for 2.5 h, in the presence of nonradioactive phospho-amino acids, as migration reference. Radioactivity was detected by digital autoradiography (Cyclone plus storage phosphor system, PerkinElmer), while migration of standard references was detected by ninhydrin staining."}, "[1]": {"system": "Recombinant human PLK3-GST", "assay": "PLK3 kinase assay on substrate peptides (33P, phosphocellulose filters)", "conditions": "1mM peptide, 1.5 μg PLK3, 10 min, 37°C, 20 μM [γ-33P]ATP; range according to the specific radioactivity; no-peptide control 2800-9000 cpm", "procedure": "Recombinant human PLK3-GST (Polo-like kinase3 - Glutathione S-transferase), cloned in PGEX-4T1 vector, was produced in BL21 cells and purified by glutathione-Sepharose affinity chromatography, eluted by an elution buffer composed of 50mM Hepes, pH 8.0 and 20mM reduced glutathione. Purity was assessed by SDS-PAGE and Comassie blue staining.\n1.5 μg of purified recombinant-PLK3 were incubated with the substrate peptides for 10 min at 37°C in 20 μl of kinase assay buffer containing 20 mM Tris-HCl pH 7.5, 10 mM MgCl2, 5mM DTT (dithiothreitol), 20 μM [γ-^33P]ATP (2000-6000 cpm/pmol). Assays were stopped by spotting onto phosphocellulose filters. Filters were washed four times in 0.5% orthophosphoric acid before scintillation counting."}},
  "data": [
    {"substance": "R3GSPSDNSGAEEMEV [Akt1(wt)]", "values": [
      {"measurement": "Phosphorylation by CK2, time course (in words)", "setting": "recombinant CK2 α2β2", "result": "good substrate"},
      {"measurement": "Phosphorylation by CK2", "setting": "recombinant CK2 α2β2", "result": "+"}
    ]},
    {"substance": "R3GSPSDNSTAEEMEV [Akt1GT, Akt1 peptide with G at n+1 replaced by T]", "values": [
      {"measurement": "Phosphorylation by CK2", "setting": "recombinant CK2 α2β2", "result": "- (or not (-))"}
    ]},
    {"substance": "R3GSPSDNSTTEEMEV [Akt2N, Akt2 peptide with S at n-1 replaced by N]", "values": [
      {"measurement": "Effect of residue replacement in the Akt2 peptide on phosphorylation by CK2 (in words)", "setting": "recombinant CK2 α2β2", "result": "no beneficial effect"},
      {"measurement": "Phosphorylation by CK2", "setting": "recombinant CK2 α2β2", "result": "- (or not (-))"}
    ]},
    {"substance": "R3GSPSDSSATEEMEV [Akt2TA, Akt2 peptide with T at n+1 replaced by A]", "values": [
      {"measurement": "Phosphorylation by CK2", "setting": "recombinant CK2 α2β2", "result": "+"}
    ]},
    {"substance": "R3GSPSDSSGTEEMEV [Akt2TG, Akt2 peptide with T at n+1 replaced by G]", "values": [
      {"measurement": "Effect of residue replacement in the Akt2 peptide on phosphorylation by CK2 (in words)", "setting": "recombinant CK2 α2β2", "result": "comparable to that of the Akt1 peptide"},
      {"measurement": "Phosphorylation by CK2", "setting": "recombinant CK2 α2β2", "result": "+"}
    ]},
    {"substance": "R3GSPSDSSSTEEMEV [Akt2TS, Akt2 peptide with T at n+1 replaced by S]", "values": [
      {"measurement": "Phosphorylation by CK2", "setting": "recombinant CK2 α2β2", "result": "+"}
    ]},
    {"substance": "R3GSPSDSSTAEEMEV [Akt2A, Akt2 peptide with T at n+2 replaced by A]", "values": [
      {"measurement": "Effect of residue replacement in the Akt2 peptide on phosphorylation by CK2 (in words)", "setting": "recombinant CK2 α2β2", "result": "no beneficial effect"},
      {"measurement": "Phosphorylation by CK2", "setting": "recombinant CK2 α2β2", "result": "- (or not (-))"}
    ]},
    {"substance": "R3GSPSDSSTTEEMEV [Akt2(wt)]", "values": [
      {"measurement": "Phospho-aminoacid accounting for phosphorylation by CK2", "setting": "CK2", "result": "entirely accounted for by phospho-serine"},
      {"measurement": "cpm detected in PLK3 assay", "setting": "[1]", "result": "50000-150000 cpm"},
      {"measurement": "Phosphorylation by CK2, time course (in words)", "setting": "recombinant CK2 α2β2", "result": "negligible extent"},
      {"measurement": "drop in phosphorylation efficiency in comparison to the Akt1 peptide", "setting": "recombinant CK2 α2β2; from Km and Vmax of Fig 1B", "result": "~10", "unit": "fold"},
      {"measurement": "Phosphorylation by CK2", "setting": "recombinant CK2 α2β2", "result": "- (or not (-))"}
    ]}
  ]
}
